{"source": "paper PMC8518382", "about": "“Identification of a Bromodomain‐like Region in 15‐Lipoxygenase‐1 Explains Its Nuclear Localization” (Angewandte Chemie (International Ed. in English), 2021)", "key": {"LOXs": {"test_system": "LOXs", "design": "method as in PMID 17942241, PMID 16500106", "details": "redox inhibitor for LOXs; read-out: IC50 in vitro; cited from earlier work"}, "15-LOX-1 [1]": {"target": "T1, 15-LOX-1 (Homo sapiens, UniProt P16050)", "T1 sequence (P16050 1-662)": "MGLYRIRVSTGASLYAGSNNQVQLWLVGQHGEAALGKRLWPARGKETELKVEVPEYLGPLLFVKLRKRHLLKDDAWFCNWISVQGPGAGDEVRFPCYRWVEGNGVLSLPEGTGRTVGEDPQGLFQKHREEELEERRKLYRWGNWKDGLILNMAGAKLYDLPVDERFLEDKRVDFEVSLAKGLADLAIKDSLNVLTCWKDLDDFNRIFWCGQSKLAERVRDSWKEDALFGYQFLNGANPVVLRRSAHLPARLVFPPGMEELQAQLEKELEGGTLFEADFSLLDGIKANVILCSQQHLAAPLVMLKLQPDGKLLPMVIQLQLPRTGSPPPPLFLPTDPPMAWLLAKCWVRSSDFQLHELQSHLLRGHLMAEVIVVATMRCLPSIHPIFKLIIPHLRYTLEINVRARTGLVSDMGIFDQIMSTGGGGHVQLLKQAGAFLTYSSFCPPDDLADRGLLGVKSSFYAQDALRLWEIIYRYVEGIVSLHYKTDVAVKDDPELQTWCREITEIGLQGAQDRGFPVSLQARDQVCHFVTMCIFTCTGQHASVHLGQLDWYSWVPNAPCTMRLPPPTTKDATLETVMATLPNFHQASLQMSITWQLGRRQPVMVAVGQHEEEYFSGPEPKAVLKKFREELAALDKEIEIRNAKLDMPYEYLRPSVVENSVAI", "test": "Sandwich ELISA of Labelox B biotinylation in A549 cell lysate, 15-LOX-1 capture", "assay_type": "biochemical", "design": "the endogenous LOXs were captured on an anti‐LOX antibody precoated 96‐well plate; endogenous in cells; host or cells: A549 cell lysate", "details": "HRP-streptavidin detection, read-out: EC50 of labeling", "procedure": "Labelox B efficiently labels endogenous LOXs. Lipoxygenase labeling by Labelox B was investigated using cell‐based assays. As a first step, labeling efficiency was estimated in intact RAW 264.7 macrophage cells that were treated with Labelox B in concentrations ranging between 1 μM and 100 μM with incubation times between 0.5 h and 6 h. […] As a next step, a sandwich ELISA assay was established in order to find proof that probe Labelox B is indeed labeling proteins with lipoxygenase enzyme activity. Towards this aim, A549 cell lysates were treated with sub‐micromolar to micromolar concentrations of Labelox B. Subsequently, the endogenous LOXs were captured on an anti‐LOX antibody precoated 96‐well plate followed by detection of Labelox B mediated biotinylation using HRP‐conjugated streptavidin. […] Furthermore, probe Labelox B enabled visualization of localized LOX activity in living cells (Figure 2 c). […] The fluorescence intensity increased with increasing doses of Labelox B and labeling was observed throughout the cells in the cytoplasm and the nucleus of A549.\nFigure 2 Labelox B labels endogenous LOXs in a dose‐ and time‐dependent manner. a, b) Western blot analysis of Labelox B labeled LOXs in intact RAW 264.7 for indicated doses and time points. […] The pictures were captured by a Leica DM4000b fluorescence microscope."}, "15-LOX-1 [2]": {"target": "T1, 15-LOX-1", "test": "Kitz-Wilson kinetic analysis of 15-LOX-1 inactivation", "assay_type": "biochemical", "design": "His-tag (N); made in house; host or cells: E. coli BL21(DE3)", "procedure": "Subsequently, Kitz‐Wilson analysis was performed to distinguish the equilibrium binding constant (K i) from the rate of covalent inactivation (k i). The different bis‐alkynes provided remarkably constant k i’s that varied by a factor 3 or less, whereas the K i’s varied by a factor 200 (Table 1). […] Improved non‐covalent binding is an important characteristic for activity‐based labeling because it implies improved specific recognition properties to the target of interest. Therefore, inhibitor 3 has been used for further development of a probe for activity‐based labeling of lipoxygenase activity with 15‐LOX‐1 as a reference enzyme. For convenient discussion, we named inhibitor 3, “Labelox B”. […]\ndescribed in the IC50 determination assay. Michaelis-Menten plots, Lineweaver-Burk plots, Km, and Vmax, are generated using GraphPad Prism 8.3.0.\n1.5. Kits-Wilson kinetic analysis\nThe probes inhibit the 15-LOX-1 enzyme with a two-step reaction. First, a probe binds to an enzyme to get a reversible complex, E*I. The dissociation constant of inhibitor (Ki) is from the formation of E*I. Then, the probe forms a covalent bond with the enzyme, which generates an irreversible complex, E-I. The inactivation rate constant (ki) is to describe the rate of E-I generation. To determine these inactivation parameters, Kitz-Wilson analysis was employed. The procedure has been detailed previously"}, "15-LOX-1 [3]": {"target": "T1, 15-LOX-1", "test": "Jump dilution assay on recombinant 15-LOX-1", "assay_type": "biochemical", "design": "His-tag (N); made in house; host or cells: E. coli BL21(DE3)", "details": "10 µM for 20 min at room temperature, then 100-fold dilution", "procedure": "Figure S3. Labelox B labeled endogenous LOXs are immunoprecipitated by streptavidin beads. (A) A549 cell lysates were treated with. Labelox B. After labeling, free Labelox B was removed by Vivaspin\n2. Labelox B labeled proteins were precipitated by Dynabeads and analyzed by Western blotting. (B) Uncropped Western blots for (A)\nLOX-1 was incubated with Labelox B at 10 µM for 20min at room temperature to ensure 100% inhibition. Then, the enzyme/probe mixture was dilution 100-fold and employed for linoleic acid conversion. The group incubated with vehicle was condisered as positive control, while the group in […] of 15-LOX-1 was negative control. […]"}}}
{"molecule": "O=c1cc(-c2ccccc2)oc2cc(O)c(O)c(O)c12", "note": "[Baicalein]", "values": [{"measurement": "IC50", "setting": "LOXs", "result": "< 4", "unit": "µM"}]}
{"molecule": "CCCCCC#CCC#CCOC(=O)CCCC[C@@H]1SC[C@@H]2NC(=O)N[C@@H]21", "note": "[Labelox B (3)]", "values": [{"measurement": "EC50", "setting": "15-LOX-1 [1]", "result": "~3.5", "unit": "µM"}, {"measurement": "k i (rate of covalent inactivation)", "setting": "15-LOX-1 [2]", "result": "0.0191 ± 0.0038", "unit": "min⁻¹"}, {"measurement": "Ki", "setting": "15-LOX-1 [2]; read-out: K i (equilibrium binding constant)", "result": "0.5 ± 0.14", "unit": "µM"}, {"measurement": "Reversibility of inhibition", "setting": "15-LOX-1 [3]", "result": "irreversibly inhibits"}]}
